Values quoted from earlier work, collected in patent publication US20200040275A1, “AVIATION FUEL WITH A RENEWABLE OXYGENATE” (Swift Fuels, LLC, priority 2014, published 2020).

Columns and labels:
[1] = SDS data from third-party compliance reports

Compound | LD50 (rat, oral) (rat) [mg/kg] | OSHA Hazards [1] | water solubility [g/100 g]
CC(C)c1ccc(N)cc1 (single isomer, unassigned) [Cumidine, 4-isopropylaniline] | 757 | Irritant. Causes respiratory | 
CCOC(C)(C)C [ETBE, ethyl tert-butyl ether] |  | Irritant | 1.2
Cc1cccc(N)c1 [m-Toluidine] |  | Toxic. Causes cyanosis. | 
